How the values were obtained:
[1] = test system: HSV-1 K26-GFP infected primary human skin cells; test: % change of HSV-1 GFP signal vs untreated infected cells; higher = less antiviral inhibition; settings: cell type: primary dermal fibroblasts, time (h post infection): 48
Experimental: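 2D primary donor-derived dermal fibroblasts infected with GFP-HSV-1 K26 at MOI 1, treated 1 h later with compound dilutions and read at 48 hpi on IncuCyte. GFP integrated intensity is normalised to mock-infected and untreated infected wells (% change; -100 = full inhibition).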

[2] = test system: HSV-1 K26-GFP infected 3D skin equivalent; test: % activity on HSV-1 GFP signal (0 = infected DMSO control, -100 = uninfected control); higher = higher signal (negative = inhibition / toxicity); settings: time (h post infection): 48
Experimental: (§1)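 Triplicate dose-response (0.04 to 10 uM) of 11 top compounds in 3D bioprinted skin equivalents (submerged and ALI models) infected with GFP-HSV-1 K26 at MOI 0.1 and fixed at 48 hpi. GFP (virus) and tdTomato (fibroblast viability) signals are normalised to per-plate controls.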

[3] = test system: HSV-1 K26-GFP infected 3D skin equivalent; test: % change of tdTomato fibroblast signal relative to infected DMSO control; higher = higher signal (negative = inhibition / toxicity); settings: time (h post infection): 48
Experimental: as §1

[4] = test system: HSV-1 K26-GFP infected primary human skin cells; test: % change of HSV-1 GFP signal vs untreated infected cells; higher = less antiviral inhibition
Experimental: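 2D primary donor-derived keratinocytes (read at 20 hpi) and donor-matched dermal fibroblasts (read at 48 hpi) infected with GFP-HSV-1 K26 at MOI 1 and treated 1 h later with compound dilutions. IncuCyte GFP integrated intensity is normalised by subtracting mock-infected wells and dividing by untreated infected wells, shown as % change (-100 = full inhibition).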

Cc1nc(N(C)C(=O)Cc2ccc(-c3ccccn3)cc2)sc1S(N)(=O)=O [Pritelivir]
Settings	% activity on HSV-1 GFP signal [%]	% change of HSV-1 GFP signal [%]	% change of tdTomato fibroblast signal [%]
[1], 0.001 µM, donor: 3	–	4.72	–
[1], 0.001 µM, donor: 4	–	1.2	–
[1], 0.003 µM, donor: 3	–	1.04	–
[1], 0.003 µM, donor: 4	–	-0.451	–
[1], 0.0091 µM, donor: 3	–	-2.12	–
[1], 0.0091 µM, donor: 4	–	-4.4	–
[1], 0.0274 µM, donor: 3	–	-9.3	–
[1], 0.0274 µM, donor: 4	–	-16.7	–
[1], 0.0823 µM, donor: 3	–	-30	–
[1], 0.0823 µM, donor: 4	–	-36.8	–
[1], 0.2469 µM, donor: 3	–	-61	–
[1], 0.2469 µM, donor: 4	–	-74.4	–
[1], 0.7407 µM, donor: 3	–	-81.3	–
[1], 0.7407 µM, donor: 4	–	-91.2	–
[1], 2.2222 µM, donor: 3	–	-90.9	–
[1], 2.2222 µM, donor: 4	–	-99.47	–
[1], 6.6667 µM, donor: 3	–	-93.7	–
[1], 6.6667 µM, donor: 4	–	-99.82	–
[1], 20 µM, donor: 3	–	-98.48	–
[1], 20 µM, donor: 4	–	-99.71	–
[2], 0.041152 µM, model: ALI	4.25	–	–
[2], 0.041152 µM, model: submerged	-6.28	–	–
[2], 0.123457 µM, model: ALI	-38.2	–	–
[2], 0.123457 µM, model: submerged	-11	–	–
[2], 0.37037 µM, model: ALI	-92.9	–	–
[2], 0.37037 µM, model: submerged	-37.4	–	–
[2], 1.111111 µM, model: ALI	-106	–	–
[2], 1.111111 µM, model: submerged	-83.7	–	–
[2], 3.33333 µM, model: ALI	-106	–	–
[2], 3.33333 µM, model: submerged	-96.7	–	–
[2], 10 µM, model: ALI	-102	–	–
[2], 10 µM, model: submerged	-94.6	–	–
[3], 0.041152 µM, model: ALI	–	–	16.3
[3], 0.041152 µM, model: submerged	–	–	11.8
[3], 0.123457 µM, model: ALI	–	–	6.72
[3], 0.123457 µM, model: submerged	–	–	-3.78
[3], 0.37037 µM, model: ALI	–	–	0.531
[3], 0.37037 µM, model: submerged	–	–	0.74
[3], 1.111111 µM, model: ALI	–	–	-3.11
[3], 1.111111 µM, model: submerged	–	–	-3.09
[3], 3.33333 µM, model: ALI	–	–	-3.08
[3], 3.33333 µM, model: submerged	–	–	-6.25
[3], 10 µM, model: ALI	–	–	12
[3], 10 µM, model: submerged	–	–	-0.666

% change of HSV-1 GFP signal [%], [4]
Settings	0.001 µM	0.003 µM	0.0091 µM	0.0274 µM	0.0823 µM	0.2469 µM	0.7407 µM	2.2222 µM	6.6667 µM	20 µM
cell type: primary dermal fibroblasts, donor: 5, time (h post infection): 48	-6.88	-8.21	-6.16	-14.2	-21.8	-61.5	-88.3	-99.754	-99.905	-99.853
cell type: primary keratinocytes, donor: 3, time (h post infection): 20	6.78	7.17	4.27	0.771	-17.7	-65.2	-88.8	-97.9	-98.88	-98.8
cell type: primary keratinocytes, donor: 4, time (h post infection): 20	1.71	10.5	3.75	-0.535	-26	-77.35	-95.7	-99.05	-99.54	-99.35
cell type: primary keratinocytes, donor: 5, time (h post infection): 20	3.7	2.94	1.99	-6.85	-31.7	-72.3	-94.1	-99.54	-99.63	-99.66

O=C(/C=C\n1cnc(-c2cc(C(F)(F)F)cc(C(F)(F)F)c2)n1)NNc1ccccn1 [Verdinexor]
Settings	% activity on HSV-1 GFP signal [%]	% change of HSV-1 GFP signal [%]	% change of tdTomato fibroblast signal [%]
[1], 0.001 µM, donor: 3	–	2.8	–
[1], 0.001 µM, donor: 4	–	-3.59	–
[1], 0.003 µM, donor: 3	–	3.24	–
[1], 0.003 µM, donor: 4	–	-6.87	–
[1], 0.0091 µM, donor: 3	–	5.63	–
[1], 0.0091 µM, donor: 4	–	-5.59	–
[1], 0.0274 µM, donor: 3	–	3.47	–
[1], 0.0274 µM, donor: 4	–	-11.5	–
[1], 0.0823 µM, donor: 3	–	-1.6	–
[1], 0.0823 µM, donor: 4	–	-10.8	–
[1], 0.2469 µM, donor: 3	–	-1.84	–
[1], 0.2469 µM, donor: 4	–	-12	–
[1], 0.7407 µM, donor: 3	–	-13.6	–
[1], 0.7407 µM, donor: 4	–	-15.2	–
[1], 2.2222 µM, donor: 3	–	-31.7	–
[1], 2.2222 µM, donor: 4	–	-33.3	–
[1], 6.6667 µM, donor: 3	–	-34.8	–
[1], 6.6667 µM, donor: 4	–	-32.3	–
[1], 20 µM, donor: 3	–	-49	–
[1], 20 µM, donor: 4	–	-21.8	–
[2], 0.041152 µM, model: ALI	22.5	–	–
[2], 0.041152 µM, model: submerged	-2.17	–	–
[2], 0.123457 µM, model: ALI	-30.1	–	–
[2], 0.123457 µM, model: submerged	-37	–	–
[2], 0.37037 µM, model: ALI	-82.5	–	–
[2], 0.37037 µM, model: submerged	-41.1	–	–
[2], 1.111111 µM, model: ALI	-92.6	–	–
[2], 1.111111 µM, model: submerged	-56.4	–	–
[2], 3.33333 µM, model: ALI	-105	–	–
[2], 3.33333 µM, model: submerged	-65.7	–	–
[2], 10 µM, model: ALI	-108	–	–
[2], 10 µM, model: submerged	-68.6	–	–
[3], 0.041152 µM, model: ALI	–	–	8.09
[3], 0.041152 µM, model: submerged	–	–	8.73
[3], 0.123457 µM, model: ALI	–	–	-4.16
[3], 0.123457 µM, model: submerged	–	–	-8.13
[3], 0.37037 µM, model: ALI	–	–	-13.3
[3], 0.37037 µM, model: submerged	–	–	-4.26
[3], 1.111111 µM, model: ALI	–	–	-11.7
[3], 1.111111 µM, model: submerged	–	–	-2.44
[3], 3.33333 µM, model: ALI	–	–	-19.1
[3], 3.33333 µM, model: submerged	–	–	-1.43
[3], 10 µM, model: ALI	–	–	-6.29
[3], 10 µM, model: submerged	–	–	-5.83

% change of HSV-1 GFP signal [%], [4]
Settings	0.001 µM	0.003 µM	0.0091 µM	0.0274 µM	0.0823 µM	0.2469 µM	0.7407 µM	2.2222 µM	6.6667 µM	20 µM
cell type: primary dermal fibroblasts, donor: 5, time (h post infection): 48	-15.5	-14.5	-9.81	-15.2	-14.8	-16.9	-28.1	-45.5	-46.8	-46.5
cell type: primary keratinocytes, donor: 3, time (h post infection): 20	17.4	18.1	8.7	2.9	12.9	9.98	-22.6	-68.6	-87.6	-92
cell type: primary keratinocytes, donor: 4, time (h post infection): 20	-13.1	-10.8	-21.9	-29.6	-15.4	-22.4	-47.4	-82.8	-95.8	-97.6
cell type: primary keratinocytes, donor: 5, time (h post infection): 20	6.47	3.84	3.12	6.11	10.5	3.84	8.2	-36.4	-76.6	-94.9

Reference: the supplement of paper PMC12533247
